Results published in ChEMBL document CHEMBL4382233, “Discovery of novel arylethenesulfonyl fluorides as potential candidates against methicillin-resistant of Staphylococcus aureus (MRSA) for overcoming multidrug resistance of bacterial infections” (2019).
Values after ≈ are worked out from the molar mass of the structure shown. Active and inactive are the calls of the source. The rule behind the calls is not given here.

How the values were obtained:
[1] = test system: Staphylococcus haemolyticus; assay: Antibacterial activity against methicillin-resistant Staphylococcus haemolyticus assessed as zone of inhibition at 200 ng/mL after 24 hrs by agar disc diffusion method; format: functional; conditions: read-out: IZ
[2] = test system: Staphylococcus haemolyticus; assay: Antibacterial activity against methicillin-resistant Staphylococcus haemolyticus assessed as zone of inhibition at 800 ng/mL after 24 hrs by agar disc diffusion method; format: functional; conditions: read-out: IZ
[3] = test system: Staphylococcus epidermidis; assay: Antibacterial activity against methicillin-resistant Staphylococcus epidermidis assessed as zone of inhibition at 20 ug/mL after 24 hrs by agar disc diffusion method; format: functional; conditions: read-out: IZ
Staphylococcus aureus [4] = assay: Antibacterial activity against methicillin-resistant Staphylococcus aureus assessed as zone of inhibition at 200 ng/mL after 24 hrs by agar disc diffusion method; format: functional; conditions: read-out: IZ
Staphylococcus aureus [5] = assay: Induction of cellular content release in methicillin-resistant Staphylococcus aureus assessed as DNA content by measuring optical density at 260 nm at MIC after 240 mins by UV-visible spectrophotometric analysis; format: functional
[6] = test system: Staphylococcus haemolyticus; assay: Antibacterial activity against methicillin-resistant Staphylococcus haemolyticus assessed as zone of inhibition at 50 ug/mL after 24 hrs by agar disc diffusion method; format: functional; conditions: read-out: IZ
Staphylococcus aureus [7] = assay: Antibacterial activity against methicillin-resistant Staphylococcus aureus after overnight incubation by micro broth dilution analysis; format: functional
[8] = test system: Staphylococcus epidermidis; assay: Antibacterial activity against methicillin-resistant Staphylococcus epidermidis after overnight incubation by micro broth dilution analysis; format: functional
[9] = test system: Staphylococcus haemolyticus; assay: Antibacterial activity against methicillin-resistant Staphylococcus haemolyticus after overnight incubation by micro broth dilution analysis; format: functional
Staphylococcus aureus [10] = assay: Antibacterial activity against methicillin-resistant Staphylococcus aureus assessed as zone of inhibition at 800 ng/mL after 24 hrs by agar disc diffusion method; format: functional; conditions: read-out: IZ
Staphylococcus aureus [11] = assay: Antibacterial activity against methicillin-resistant Staphylococcus aureus assessed as zone of inhibition at 400 ng/mL after 24 hrs by agar disc diffusion method; format: functional; conditions: read-out: IZ
Staphylococcus aureus [12] = assay: Antibacterial activity against methicillin-resistant Staphylococcus aureus assessed as zone of inhibition at 50 ug/mL after 24 hrs by agar disc diffusion method; format: functional; conditions: read-out: IZ
[13] = test system: Staphylococcus haemolyticus; assay: Antibacterial activity against methicillin-resistant Staphylococcus haemolyticus assessed as zone of inhibition at 400 ng/mL after 24 hrs by agar disc diffusion method; format: functional; conditions: read-out: IZ
Staphylococcus aureus [14] = assay: Antibiofilm activity against methicillin-resistant Staphylococcus aureus at 2 times MIC after 24 hrs by crystal violet staining-based UV-visible spectrophotometric analysis; format: functional, organism-based
Staphylococcus aureus [15] = assay: Induction of pore formation in methicillin-resistant Staphylococcus aureus cell membrane assessed as increase in ferricyanide mediated cellular leakage after 2 hrs by DCPIP dye-based cyclic voltammetric analysis; format: functional, organism-based
Staphylococcus aureus [16] = assay: Induction of pore formation in methicillin-resistant Staphylococcus aureus cell membrane assessed as increase in ferricyanide mediated DNA damage after 2 hrs by DCPIP dye-based cyclic voltammetric analysis; format: functional, organism-based
Staphylococcus aureus [17] = assay: Induction of pore formation in methicillin-resistant Staphylococcus aureus cell membrane assessed as increase in ferricyanide mediated potassium efflux after 2 hrs by DCPIP dye-based cyclic voltammetric analysis; format: functional, organism-based
Staphylococcus aureus [18] = assay: Antibiofilm activity against methicillin-resistant Staphylococcus aureus planktonic biofilm assessed as optical density at 492 nm at MIC after 24 hrs by crystal violet staining-based UV-visible spectrophotometric analysis; format: functional
Staphylococcus aureus [19] = assay: Antibiofilm activity against methicillin-resistant Staphylococcus aureus at MIC after 24 hrs by crystal violet staining-based UV-visible spectrophotometric analysis; format: functional, organism-based
[20] = test system: Staphylococcus epidermidis; assay: Antibacterial activity against methicillin-resistant Staphylococcus epidermidis assessed as zone of inhibition at 200 ng/mL after 24 hrs by agar disc diffusion method; format: functional; conditions: read-out: IZ
[21] = test system: Staphylococcus epidermidis; assay: Antibacterial activity against methicillin-resistant Staphylococcus epidermidis assessed as zone of inhibition at 400 ng/mL after 24 hrs by agar disc diffusion method; format: functional; conditions: read-out: IZ
[22] = test system: Staphylococcus epidermidis; assay: Antibacterial activity against methicillin-resistant Staphylococcus epidermidis assessed as zone of inhibition at 800 ng/mL after 24 hrs by agar disc diffusion method; format: functional; conditions: read-out: IZ

Row | Molecule | zone of inhibition at 0.2 µg/mL [1] | zone of inhibition at 0.8 µg/mL [2] | zone of inhibition at 20 µg/mL [3] | zone of inhibition at 0.2 µg/mL (Staphylococcus aureus [4]) | OD (Staphylococcus aureus [5]) | zone of inhibition at 50 µg/mL [6] | MIC99 (Staphylococcus aureus [7]) | MIC99 [8] | MIC99 [9] | zone of inhibition at 0.8 µg/mL (Staphylococcus aureus [10]) | zone of inhibition at 0.4 µg/mL (Staphylococcus aureus [11]) | zone of inhibition at 50 µg/mL (Staphylococcus aureus [12]) | zone of inhibition at 0.4 µg/mL [13] | Activity (Staphylococcus aureus [14]) | OD (Staphylococcus aureus [18]) | zone of inhibition at 0.2 µg/mL [20] | zone of inhibition at 0.4 µg/mL [21] | zone of inhibition at 0.8 µg/mL [22] | further results
1 | O=[N+]([O-])c1ccc(/C=C/S(=O)(=O)F)cc1 | 4.1 mm | 7.4 mm | 6.2 mm | 5.1 mm | 1.35 | 7.3 mm | 0.823 µg/mL (≈ 3.56 µM) | 58.2 µg/mL (≈ 252 µM) | 0.833 µg/mL (≈ 3.6 µM) | 10.1 mm | 7.2 mm | 8.12 mm | 5.2 mm | Active |  |  |  |  | 
2 | CC(=O)c1cccc(/C=C/S(=O)(=O)F)c1 | 4.2 mm | 6.2 mm | 3.3 mm | 5.2 mm | 1.28 | 8.2 mm | 0.851 µg/mL (≈ 3.73 µM) | 55.6 µg/mL (≈ 244 µM) | 0.843 µg/mL (≈ 3.69 µM) | 8.1 mm | 7.5 mm | 10.1 mm | 5.2 mm | Active |  |  |  |  | Activity (Staphylococcus aureus [15]): Active; Activity (Staphylococcus aureus [16]): Active; Activity (Staphylococcus aureus [17]): Active
3 | GENTAMICIN |  |  |  |  |  |  |  |  |  |  |  |  |  | Active | 0.808 |  |  |  | 
4 | CC(C)S(=O)(=O)c1ccc(/C=C/S(=O)(=O)F)cc1 |  |  | 6.2 mm | 6.2 mm | 1.78 | 5.2 mm | 0.808 µg/mL (≈ 2.76 µM) | 41.4 µg/mL (≈ 142 µM) | 41.2 µg/mL (≈ 141 µM) | 10.1 mm | 8.1 mm | 9 mm |  |  | 0.6 |  |  |  | Activity (Staphylococcus aureus [19]): Active
5 | O=S(=O)(F)/C=C/c1cccc2ccccc12 |  |  | 5.5 mm | 4.2 mm | 1.48 | 4.1 mm | 0.82 µg/mL (≈ 3.47 µM) | 47 µg/mL (≈ 199 µM) | 51 µg/mL (≈ 216 µM) | 9.2 mm | 6.2 mm | 9.2 mm |  | Active |  |  |  |  | 
6 | O=C(O)c1cn(C2CC2)c2cc(N3CCNCC3)c(F)cc2c1=O [CIPROFLOXACIN] |  |  |  |  |  |  |  |  |  |  |  |  |  | Active | 0.915 |  |  |  | 
7 | O=S(=O)(F)/C=C/c1cccc(I)c1 | 0 mm | 3.2 mm | 8.2 mm |  |  | 8.2 mm | 46 µg/mL (≈ 148 µM) | 0.825 µg/mL (≈ 2.64 µM) | 23.1 µg/mL (≈ 74.2 µM) |  |  | 12.3 mm | 0 mm |  |  | 6.1 mm | 7.1 mm | 8.1 mm | 
8 | COc1cccc(/C=C/S(=O)(=O)F)c1 |  |  | 4.3 mm | 4.1 mm | 1.56 | 6.3 mm | 0.842 µg/mL (≈ 3.89 µM) | 55.2 µg/mL (≈ 255 µM) | 63.2 µg/mL (≈ 292 µM) | 9.1 mm | 5.2 mm | 9.1 mm |  | Active |  |  |  |  | 
9 | CS(=O)(=O)c1ccc(/C=C/S(=O)(=O)F)cc1 |  |  | 4.2 mm | 4.1 mm | 1.45 |  | 15.1 µg/mL (≈ 56.9 µM) | 50 µg/mL (≈ 189 µM) | 43.2 µg/mL (≈ 163 µM) | 7.1 mm | 5.2 mm | 10.3 mm |  |  | 0.718 |  |  |  | Activity (Staphylococcus aureus [19]): Active
10 | O=S(=O)(F)/C=C/c1cc(Cl)cc(Cl)c1 | 0 mm | 5.1 mm | 4.4 mm | 6.2 mm | 1.34 | 13.1 mm | 0.812 µg/mL (≈ 3.18 µM) | 48.1 µg/mL (≈ 188 µM) | 16.3 µg/mL (≈ 63.9 µM) | 14.2 mm | 10.2 mm | 20.1 mm | 3.3 mm |  | 0.825 |  |  |  | Activity (Staphylococcus aureus [15]): Active; Activity (Staphylococcus aureus [16]): Active; Activity (Staphylococcus aureus [17]): Active; Activity (Staphylococcus aureus [19]): Active
11 | O=[N+]([O-])c1cccc(/C=C/S(=O)(=O)F)c1 |  |  | 7.4 mm | 5.2 mm | 1.45 | 6.4 mm | 0.843 µg/mL (≈ 3.65 µM) | 0.831 µg/mL (≈ 3.59 µM) | 61.6 µg/mL (≈ 266 µM) | 9.7 mm | 6.1 mm | 9.1 mm |  | Active |  | 5.2 mm | 6.2 mm | 7.2 mm | 
12 | Cc1cc(/C=C/S(=O)(=O)F)ccc1Br |  |  | 6.3 mm | 6.2 mm | 1.61 | 5.3 mm | 0.81 µg/mL (≈ 2.9 µM) | 50 µg/mL (≈ 179 µM) | 57.2 µg/mL (≈ 205 µM) | 10.4 mm | 8.2 mm | 12 mm |  | Active |  |  |  |  | 
13 | O=S(=O)(F)/C=C/c1cccc(O)c1 |  |  | 7.4 mm | 3.5 mm | 1.52 | 4.5 mm | 0.841 µg/mL (≈ 4.16 µM) | 0.83 µg/mL (≈ 4.1 µM) | 58.2 µg/mL (≈ 288 µM) | 6.3 mm | 4.1 mm | 12.2 mm |  | Active |  | 4.2 mm | 5.3 mm | 7.4 mm | 
14 | O=S(=O)(F)/C=C/c1ccccc1 | 0 mm | 3.2 mm | 11.2 mm | 3.5 mm |  | 7.2 mm | 18.2 µg/mL (≈ 97.5 µM) | 15.2 µg/mL (≈ 81.4 µM) | 20.1 µg/mL (≈ 108 µM) | 4.5 mm | 4.2 mm | 8.2 mm | 1.2 mm |  |  | 0.1 mm | 4.2 mm | 5.5 mm | 
15 | O=S(=O)(F)/C=C/c1ccc(C(F)(F)F)nc1 |  |  | 8.5 mm | 5.1 mm | 1.67 | 5.5 mm | 0.811 µg/mL (≈ 3.18 µM) | 0.838 µg/mL (≈ 3.28 µM) | 40 µg/mL (≈ 157 µM) | 11.2 mm | 7.2 mm | 12.2 mm |  |  | 0.815 | 4.2 mm | 5.1 mm | 7.2 mm | Activity (Staphylococcus aureus [19]): Active
16 | COc1ccccc1/C=C/S(=O)(=O)F | 3.2 mm | 7.1 mm | 7.2 mm |  |  | 12.2 mm | 69.1 µg/mL (≈ 319 µM) | 0.829 µg/mL (≈ 3.83 µM) | 0.837 µg/mL (≈ 3.87 µM) |  |  | 5.2 mm | 5.2 mm | Active |  | 5.1 mm | 7.2 mm | 8.4 mm | 
17 | O=S(=O)(F)/C=C/c1ccccc1Br | 1.1 mm | 3.3 mm | 14.1 mm | 3.5 mm | 1.58 | 11.2 mm | 0.839 µg/mL (≈ 3.16 µM) | 0.809 µg/mL (≈ 3.05 µM) | 25.3 µg/mL (≈ 95.5 µM) | 7.2 mm | 4.4 mm | 20.1 mm | 2.2 mm |  | 0.725 | 10.1 mm | 11.5 mm | 14.2 mm | 
18 | Cc1cc(C)cc(/C=C/S(=O)(=O)F)c1 |  |  | 9.2 mm |  | 1.37 | 3.5 mm | 40.2 µg/mL (≈ 188 µM) | 0.818 µg/mL (≈ 3.82 µM) | 60.2 µg/mL (≈ 281 µM) |  |  | 7.2 mm |  | Active |  | 3.3 mm | 5.2 mm | 9.8 mm | 
19 | Cc1ccc(/C=C/S(=O)(=O)F)cc1 |  |  | 6.4 mm | 4.1 mm | 1.48 | 6.3 mm | 0.836 µg/mL (≈ 4.18 µM) | 44.2 µg/mL (≈ 221 µM) | 40.1 µg/mL (≈ 201 µM) | 7.1 mm | 5.2 mm | 10.3 mm |  |  | 0.815 |  |  |  | Activity (Staphylococcus aureus [19]): Active
